Here are results for 6 compounds from publication PMC4366261, “Characterization of the Intestinal Absorption of Seven Flavonoids from the Flowers of Trollius chinensis Using the Caco-2 Cell Monolayer Model” (PLoS ONE, 2015).

The subject of one data set is Caco-2 cells. The experiment in a line: MTT assay, survival rate of Caco-2 cells. The format is cell-based, human. The conditions noted are these: 4 h. The text has this: The human colon adenocarcinoma cell line Caco-2 (No. 3111C0001CCC000100, passage 32) was obtained from the Cell Resource Center, Peking Union Medical College (the headquarters of National Infrastructure of Cell Line Resource, NSTI) on May 3rd, 2013. The cell line was checked free of mycoplasma contamination by PCR and culture, its species origin was confirmed with PCR, and its identity was authenticated with STR profiling (FBI, CODIS). All results of the above tests can be viewed on the website (http://cellresource.cn). The cells were cultured in 25 cm^2 flasks in DMEM medium supplemented with 10% (v/v) FBS, 1% (v/v) NEAA, and 1% (v/v) penicillin-streptomycin, in an atmosphere of 5% CO2 at 37°C and constant moisture. The culture medium was replaced every 2 to 3 days, and the cells were split 1:2 or 1:3 as 80% confluence was obtained.
Caco-2 cells at logarithmic growth phase were seeded into 96-well plates and incubated at 37°C in an atmosphere of 5% CO2 and constant moisture in the incubator. After the cells reached confluence, they were cultured in quadruplicate with 100 μL of HBSS solution (negative control) and compound-containing HBSS solution (seven flavonoids or paclitaxel (positive control) at the concentrations of 25, 50, and 100 μmol/L, respectively) for 4 h. Then, HBSS solution was replaced by 100 μL of MTT solution (0.5 mg/mL), and the supernatant was discarded after 4 h of incubation at 37°C. The cells were shaken with 150 μL of DMSO for 10 min, and the absorbance was read on the microplate reader at 570 nm. The survival rate %=A¯/A0¯×100 , wherein A¯ was the average absorbance value of treatment or positive control group, and A0¯ was the average absorbance value of negative control group.

Data set [1] is described as follows: Transport experiment across Caco-2 cell monolayer (Papp). The class given is in vitro ADME, human. Conditions: human. As to the method:
(§1) For cells differentiation to form a confluent monolayer, Caco-2 cells were seeded into the inserts of the 12-well Transwell plates at the density of 1.0×10^5 cells/cm^2. The culture medium was replaced on every other day in the first week, and then at daily intervals for the apical (AP) side and 2 days intervals for the basal (BL) side until the transport experiment was performed 21 days after seeding. The AP and BL sides contained 0.5 and 1.5 mL of culture medium, respectively. […] The cell inserts were considered as qualified only if the resistance reached above 600 Ω cm^2.
(§2) On day 21, the transport experiment was initiated by removal of the culture medium from AP and BL sides. The Caco-2 monolayers were rinsed twice with pre-warmed Hanks balanced salt solution (HBSS) and were incubated with the same solution at 37°C for 30 min. The seven individual test compounds and an equimolar mixture of them were pre-dissolved in DMSO, and then diluted to 25, 50, and 100 μmol/L with an appropriate volume of HBSS to allow the final concentration of DMSO to be less than 1%. The test compounds were added to the AP (0.5 mL) or BL side (1.5 mL), while the receiving chamber contained the corresponding volume of HBSS. Incubation was performed at 37°C for 180 min, with shaking at 50 rpm. At 30, 60, 90, 120, 150, and 180 min, each 0.2 mL of the solution from BL or AP side was collected, and replaced with an equal volume of HBSS. The samples were frozen immediately and stored below-20°C before analysis.
(§3) The apparent permeability coefficients (Papp) were determined in this study by HPLC quantification of the compounds in the receiver chamber after transport across the Caco-2 monolayer. The calculation was carried out in accordance with the formula Papp = (dQ/dt)×(1/A)×(1/C0), wherein dQ/dt was the rate of appearance of the test compound in the receiver compartment (μmol/s); C0 was the initial concentration of test compound in the donor compartment (μmol/mL); and A was the surface area of the Caco-2 monolayer (cm^2). The percentage transported (%) was calculated using the formula % transported = QB/(CS×VD)×100, wherein QB was the quantity of compound in the receiver compartment (μmol); CS was the concentration of test compound in the donor compartment (μmol/mL); VD was the liquid volume of the donor compartment (mL). The transport rate (μmol/h/cm^2) was calculated using the formula transport rate = QB/(t×A), wherein QB was the quantity of compound in the receiver compartment (μmol); t was the incubation time (h); A was the surface area of the Caco-2 monolayer (cm^2).
A general note: Caco-2 cells form a polarised layer with tight junctions and transporters.

Another data set deals with Caco-2 cell monolayer. The data set is described as above. The class given is in vitro ADME, human. Conditions: for Absorption mechanism: from P ratio, time course and concentration course; for P ratio Papp AP→BL/Papp BL→AP: 50 μmol/L, 90 min. As to the method:
as §1, §2, §3

In a further data set the target is T1, P-glycoprotein (P-gp) (Homo sapiens, UniProt P08183).
T1 construct: endogenous in cells; host or cells: Caco-2 cells
T1 sequence (P08183 whole entry): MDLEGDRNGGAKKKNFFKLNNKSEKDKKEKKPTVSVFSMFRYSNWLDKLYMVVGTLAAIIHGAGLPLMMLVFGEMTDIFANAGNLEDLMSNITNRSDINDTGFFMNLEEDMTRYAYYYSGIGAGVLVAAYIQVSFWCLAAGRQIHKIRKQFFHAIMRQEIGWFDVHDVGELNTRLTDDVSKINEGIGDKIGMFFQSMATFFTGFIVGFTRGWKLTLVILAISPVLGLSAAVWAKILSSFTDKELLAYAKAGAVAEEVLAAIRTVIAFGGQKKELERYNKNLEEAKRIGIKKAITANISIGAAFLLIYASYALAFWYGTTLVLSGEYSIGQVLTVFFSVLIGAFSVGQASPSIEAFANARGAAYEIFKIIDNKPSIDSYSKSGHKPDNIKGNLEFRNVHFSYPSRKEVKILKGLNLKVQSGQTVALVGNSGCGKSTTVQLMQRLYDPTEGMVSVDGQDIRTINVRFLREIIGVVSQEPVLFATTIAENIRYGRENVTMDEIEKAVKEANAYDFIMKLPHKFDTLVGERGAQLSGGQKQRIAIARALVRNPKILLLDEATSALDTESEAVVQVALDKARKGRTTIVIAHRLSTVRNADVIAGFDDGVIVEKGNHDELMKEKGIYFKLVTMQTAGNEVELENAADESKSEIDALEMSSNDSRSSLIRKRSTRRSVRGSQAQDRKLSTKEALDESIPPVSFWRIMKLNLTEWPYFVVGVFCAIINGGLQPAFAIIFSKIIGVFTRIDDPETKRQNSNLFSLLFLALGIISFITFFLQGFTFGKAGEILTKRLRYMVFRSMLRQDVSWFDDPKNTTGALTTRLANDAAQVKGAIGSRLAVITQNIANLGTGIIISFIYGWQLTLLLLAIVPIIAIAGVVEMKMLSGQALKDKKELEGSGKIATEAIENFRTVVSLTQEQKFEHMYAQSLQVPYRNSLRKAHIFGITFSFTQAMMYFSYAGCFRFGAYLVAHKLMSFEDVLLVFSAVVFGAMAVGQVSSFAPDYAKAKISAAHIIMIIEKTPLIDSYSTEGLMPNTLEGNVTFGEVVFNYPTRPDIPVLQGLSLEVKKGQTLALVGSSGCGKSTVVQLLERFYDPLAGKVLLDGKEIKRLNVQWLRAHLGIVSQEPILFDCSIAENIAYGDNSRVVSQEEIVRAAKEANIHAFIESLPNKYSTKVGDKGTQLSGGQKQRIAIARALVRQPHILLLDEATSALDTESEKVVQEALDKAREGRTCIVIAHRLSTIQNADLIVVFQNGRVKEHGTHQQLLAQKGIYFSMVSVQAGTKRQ
The experiment in a line: Transporter inhibition experiment with verapamil hydrochloride (P-gp) in Caco-2 monolayer. The conditions noted are these: 50 μmol/L compound, 100 μmol/L verapamil hydrochloride, AP to BL. The class given is in vitro ADME. As to the method:
On day 21, transport study was initiated by carefully removing the culture medium from both AP and BL sides. The Caco-2 monolayers were rinsed twice with pre-warmed HBSS and were incubated with the same solution at 37°C for 30 min. […] The final concentration of DMSO in these solutions was less than 1%. […] Incubation was performed at 37°C for 180 min, with shaking at 50 rpm. […] The samples were frozen immediately and stored below-20°C before analysis.

A short description of data set [2]: Stability of sample solutions at room temperature by HPLC. The format is physicochemical. The conditions noted are these: sample solution at room temperature, HPLC at 0, 1, 2, 4, 6, 12 and 24 h. The procedure:
The intra-day precision was determined by investigating the analytes in sextuplicates during a single day, and the inter-day precision was determined by conducting the intra-day experiment on two consecutive days. […] Each one sample solution of the seven flavonoids was kept at room temperature, and then their stabilities were determined by injecting them into apparatus at 0, 1, 2, 4, 6, 12, and 24 h.

In data set [3] the test system is parainfluenza virus type 3 (Para 3). More on the design: method as in PMID 11849843. The conditions noted are these: cited from earlier work.
The next data set deals with Staphylococcus aureus. More on the design: method as in earlier work. Conditions: cited from earlier work.
Another data set concerns S. epidermidis. The arrangement: method as in earlier work. The conditions noted are these: cited from earlier work.
The test system of another data set is murine ear edema model. Conditions: cited from earlier work.
Setting [4] is: Caco-2, in the equimolar mixture of the seven flavonoids.
The mark [5] stands for this setting: in the equimolar mixture of the seven flavonoids.

≈ marks a conversion by molar mass, not a printed value.

As a reminder, the Papp A→B is how fast a substance crosses the layer from the apical side. Usually Papp B→A stands for the apparent permeability from the basolateral to the apical side of a cell layer. In the case of `O=c1cc(-c2ccc(O)c(O)c2)oc2c([C@@H]3O[C@H](CO)[C@@H](O)[C@H](O)[C@H]3O)c(O)cc(O)c12` [Orientin, 2-(3,4-dihydroxyphenyl)-5,7-dihydroxy-8-((2S,3R,4R,5S,6R)-3,4,5-trihydroxy-6-(hydroxymethyl)tetrahydro-2H-pyran-2-yl)-4H-chromen-4-one], the entries for the “Survival rates (%)” value with Caco-2 cells (25 μmol/L), in the data set with Caco-2 cells (50 μmol/L) and in the data set on Caco-2 cells (100 μmol/L) were 100.4±1.3%, 114.3±7.5% and 111.5±2.4%, respectively. Besides, the Papp A→B at 90 min, 50 μmol/L was 1.14 ± 0.27 ×10⁻⁶ cm/s in data set [1] (setting [4]) and 0.75 ± 0.05 ×10⁻⁶ cm/s in [1] (Caco-2, individual compound). In addition, the Papp B→A at 90 min, 50 μmol/L in data set [1] (setting [4]) is 0.88 ± 0.31 ×10⁻⁶ cm/s; in data set [1] (Caco-2, individual compound), 1.14 ± 0.08 ×10⁻⁶ cm/s. In the data set on Caco-2 cell monolayer, the Absorption mechanism entry is “transporter mediated efflux in addition to passive diffusion”. Besides, the figures for the “P ratio Papp AP→BL/Papp BL→AP” value in the data set on Caco-2 cell monolayer (setting [5]) and in the data set on Caco-2 cell monolayer (individual compound) were 1.29 and 0.66, respectively. Besides, the “Substrate of P-gp” value on P-glycoprotein (P-gp) is on record as “substrates of P-gp”. Further, on P-glycoprotein (P-gp) (180 min), the “Effect of verapamil hydrochloride on the transport” value is listed as “increased”. In addition, the “RSD% values for 24-hour stability” value in data set [2] turned out to be 2.35%. In addition, in data set [3], the “IC50 against parainfluenza virus type 3” value is 11.7 µg/mL (≈ 26.1 µM). In the data set with Staphylococcus aureus, the “MIC toward S. aureus” value is 25 µg/mL (≈ 55.8 µM). The “MIC toward S. epidermidis” value in the data set with S. epidermidis is 25 µg/mL (≈ 55.8 µM). Further, the “Anti-inflammatory effect against murine ear edema” value in the data set with murine ear edema model was “possess anti-inflammatory effects”.

As for `O=c1cc(-c2ccc(O)cc2)oc2c([C@@H]3O[C@H](CO)[C@@H](O)[C@H](O)[C@H]3O[C@@H]3O[C@H](CO)[C@H](O)[C@H](O)[C@H]3O)c(O)cc(O)c12` [2”-O-β-L-galactopyranosylvitexin, 8-((2S,3R,4S,5S,6R)-4,5-dihydroxy-6-(hydroxymethyl)-3-(((2S,3R,4S,5R,6R)-3,4,5-trihydroxy-6-(hydroxymethyl)tetrahydro-2H-pyran-2-yl)oxy)tetrahydro-2H-pyran-2-yl)-5,7-dihydroxy-2-(4-hydroxyphenyl)-4H-chromen-4-one], the Papp A→B at 90 min, 50 μmol/L is 1.92 ± 0.42 ×10⁻⁶ cm/s in data set [1] (setting [4]) and 1.85 ± 0.02 ×10⁻⁶ cm/s in data set [1] (Caco-2, individual compound). In addition, the Papp B→A at 90 min, 50 μmol/L in data set [1] (setting [4]) is 0.81 ± 0.27 ×10⁻⁶ cm/s; in [1] (Caco-2, individual compound), 4.68 ± 0.02 ×10⁻⁶ cm/s. In addition, in the data set on Caco-2 cell monolayer, the Absorption mechanism entry is given as “transporter mediated efflux in addition to passive diffusion”. In [2], the “RSD% values for 24-hour stability” value is 2.65%.

`COc1cc(O)c2c(=O)cc(-c3ccc(O)cc3)oc2c1[C@@H]1O[C@H](CO)[C@@H](O)[C@H](O)[C@H]1O` [Isoswertisin, 5-hydroxy-2-(4-hydroxyphenyl)-7-methoxy-8-((2S,3R,4R,5S,6R)-3,4,5-trihydroxy-6-(hydroxymethyl)tetrahydro-2H-pyran-2-yl)-4H-chromen-4-one]: the “Survival rates (%)” value with Caco-2 cells (25 μmol/L) amounted to 110.8±9.9%; with Caco-2 cells (50 μmol/L), 115.3±5.5%; in the data set on Caco-2 cells (100 μmol/L) it was 116.0±8.6%. Besides, the Papp A→B at 90 min, 50 μmol/L in [1] (setting [4]) worked out at 2.69 ± 0.37 ×10⁻⁶ cm/s; in data set [1] (Caco-2, individual compound), 1.07 ± 0.08 ×10⁻⁶ cm/s. Also, the Papp B→A at 90 min, 50 μmol/L was determined as 1.59 ± 0.2 ×10⁻⁶ cm/s in [1] (setting [4]) and 0.94 ± 0.18 ×10⁻⁶ cm/s in [1] (Caco-2, individual compound). For the same compound, the Absorption mechanism entry in the data set on Caco-2 cell monolayer is “passive diffusion without participation of transporter”. In addition, the “P ratio Papp AP→BL/Papp BL→AP” value is on record as 1.69 in the data set on Caco-2 cell monolayer (setting [5]); 1.14 in the data set on Caco-2 cell monolayer (individual compound); around 1 in the data set on Caco-2 cell monolayer (individual compound, listed as isoswertisin). The “RSD% values for 24-hour stability” value in data set [2] stood at 2.82%.

What is called Papp is the rate of passage across a membrane or cell layer, normalised by area and donor concentration. As to `CC(C)NCC(O)COc1cccc2ccccc12` (stereo not drawn) [propranolol, reference compound], the Papp in data set [1] (Caco-2, standard compounds, validation of the monolayer model) came out at 14.4 ×10⁻⁶ cm/s.

As to `CC(=O)O[C@H]1C(=O)[C@@]2(C)[C@H]([C@H](OC(=O)c3ccccc3)[C@]3(O)C[C@H](OC(=O)[C@H](O)[C@@H](NC(=O)c4ccccc4)c4ccccc4)C(C)=C1C3(C)C)[C@]1(OC(C)=O)CO[C@@H]1C[C@@H]2O` [Paclitaxel, reference compound], the “Survival rates (%)” value with Caco-2 cells (25 μmol/L) is 67.3±8.2%; with Caco-2 cells (25 μmol/L, listed as paclitaxel), 67.3%; in the data set with Caco-2 cells (50 μmol/L), 45.5±6.7%; in the data set on Caco-2 cells (50 μmol/L, listed as paclitaxel), 45.5%; with Caco-2 cells (100 μmol/L), 37.4±3.5%; in the data set with Caco-2 cells (100 μmol/L, listed as paclitaxel) it was 37.4%.

Consider `COc1cc(O)c2c(=O)cc(-c3ccc(O)c(O)c3)oc2c1[C@@H]1O[C@H](CO)[C@@H](O)[C@H](O)[C@H]1O` [Isoswertiajaponin, 2-(3,4-dihydroxyphenyl)-5-hydroxy-7-methoxy-8-((2S,3R,4R,5S,6R)-3,4,5-trihydroxy-6-(hydroxymethyl)tetrahydro-2H-pyran-2-yl)-4H-chromen-4-one], for which the entries for the “Survival rates (%)” value with Caco-2 cells (25 μmol/L), with Caco-2 cells (50 μmol/L) and in the data set on Caco-2 cells (100 μmol/L) were 116.7±8.9%, 124.6±5.4% and 109.1±12.6%, respectively. Besides, the Papp A→B at 90 min, 50 μmol/L was found to be 1.44 ± 0.47 ×10⁻⁶ cm/s in [1] (setting [4]) and 0.98 ± 0.03 ×10⁻⁶ cm/s in [1] (Caco-2, individual compound). Besides, the basolateral-to-apical permeability (Papp B→A) at 90 min, 50 μmol/L amounted to 0.54 ± 0.31 ×10⁻⁶ cm/s in data set [1] (setting [4]) and 1.19 ± 0.07 ×10⁻⁶ cm/s in [1] (Caco-2, individual compound). Also, in the data set with Caco-2 cell monolayer, the Absorption mechanism entry is reported as “passive diffusion without participation of transporter”. Also, the “P ratio Papp AP→BL/Papp BL→AP” value with Caco-2 cell monolayer (setting [5]) is 2.66; with Caco-2 cell monolayer (individual compound), 0.83; in the data set on Caco-2 cell monolayer (individual compound, listed as isoswertiajaponin), around 1. Also, the “RSD% values for 24-hour stability” value in data set [2] worked out at 2.95%.
